Experimental data: US11872263B2, “AIMP1 protein fragment and hair growth-promoting composition containing same as active ingredient” (CUREBIO THERAPEUTICS, priority 2016, dated 2024)

Key:
[1] = system: dorsal hair of depilated C57BL6 mice; test: In vivo hair regrowth after depilation of dorsal skin of mice; parameters: species or system mouse; conditions: 13 days after depilation, 100 nM polypeptide, 80 μl topical once a day
Description: (§1) The hair of the dorsal skin of mice (7 weeks old male C57BL6, purchased from Orient Bio Inc.) was cut out with a clipper, and hair removal cream (Niclean, Ildong Pharmaceutical) was applied. The depilated area was about 2×2.5 cm. Mice were treated with 20% glycerol/PBS (control group), 3% Minoxidil (MNX, 140 mM), FGF7 (100 nM) or Neo-Pep of the present invention (polypeptide of SEQ ID NO: 1, 100 nM), respectively, once a day in 80 μl using brush, for 13 days (n=6 per group).
as §1, with “Specifically, the hair” for “The hair”, “of a mouse” for “of mice”, “group). For comparative observation, the dorsal skin of the mouse was photographed before and after the beginning of the test.” for “group).”

[2] = system: hair follicles of anagen phase in dorsal skin; test: H&E staining of dorsal skin sections: anagen hair follicle count and dermis thickness; assay type: in vivo, mouse; conditions: H&E stained dorsal skin sections, Day 13 after depilation, 100 nM
Description: Skin samples of 7 weeks old male C57BL6 mice (purchased from Orient Bio Inc.) were collected and placed in a cryomold using an OCT compound (Tissue-Tek) and stored at −80° C. in a freezer. After tissue sections were prepared with Microm HM 525 (Thermo Scientific), the tissue sections prepared in the slide glass were fixed with 4% paraformaldehyde for 10 minutes, washed twice with PBS for 5 minutes, and then stained with 50 μl of hematoxylin solution (Sigma Aldrich) for 6 minutes and washed with water and PBS for 5 minutes. Then, stained with eosin (Sigma Aldrich), briefly washed with water and washed with PBS for 5 min, then briefly twice with 95% ethanol and 100% ethanol, respectively. After treatment with xylene (Duksan) twice for 2 min, the stained tissue sections were covered with cover slides and fixed.
In addition, dorsal skin samples of the mice were collected and placed in a cryomold using an OCT compound (Tissue-Tek) and stored at −80° C. in a freezer. […] The number of hair follicles of anagen phase (growth phase) was counted and compared quantitatively in dorsal skin sections of each group stained with hematoxylin and eosin (H & E).

[3] = system: hair follicle region of skin tissue; test: Histological analysis (IHC for BrdU, β-catenin, Cytokeratin 15) of skin at Day 6 after depilation; assay type: in vivo, mouse; conditions: 100 nM
Description: A skin sample of 7 weeks old male C57BL6 mice (purchased from Orient Bio Inc.) was collected and placed in a paraffin block. IHC (Immunohistochemistry) was performed using Cytokeratin 15 antibody (Abcam), BrdU antibody (Novusbio), and β-catenin antibody.
For reference, β-catenin is a hair follicle signaling marker, Cytokeratin 15 is a hair follicle stem cell marker, and BrdU is a cell proliferation marker.
β-catenin is a very important protein for hair growth and a very important factor in follicular stem cell proliferation playing a role as a signaling marker for hair follicle cells. In addition, Cytokeratin 15 acts as a biomarker of hair follicle stem cells, and BrdU is known to be a factor that plays a role as a cell growth marker.

[4] = system: CD34+ hair follicle stem cells; test: In vitro hair growth assay / BrdU proliferation assay with CD34+ hair follicle stem cells; assay type: cell-based, mouse
Description: The hair of the dorsal skin of 7 weeks old male C57BL6 mice (purchased from Orient Bio Inc.) were cut with a clipper and skin tissue samples of the depilated dorsal region of the mice were collected. The collected skin tissue samples were immersed in medium using collagenase, DNase I, and hyaluronidase, and cells were isolated using Gentle MACSTM Dissociator (Miltenyi Biotec). After the cells were separated, the separated cells were incubated with a mouse CD34-Biotin antibody (Miltenyi Biotec). Cells and antibody solutions were incubated with streptavidin microbeads (Miltenyi Biotec) and then separated using LS column (Miltenyi Biotec). The separated cells were cultured in DMEM medium containing 10% FBS, 1% penicillin/streptomycin solution in humidified air of 95% 02 and 5% CO2 at 37° C.
Cell proliferation can be confirmed using the BrdU cell proliferation assay kit (Cell Signaling). Proliferation assays were performed using protocols presented by […]. Briefly, the cells were incubated with BrdU for 2 h. The primary BrdU detection antibody was incubated for 1 hour and the secondary anti-mouse IgG, HRP-conjugate antibody was incubated for 30 minutes.
A hair growth in vitro assay was performed using the Cyquant Assay (Thermo Fisher). […]

[5] = system: β-catenin target genes AXIN, CD44 and TCF7; test: qRT-PCR of β-catenin target genes in CD34+ cells; assay type: cell-based, mouse; conditions: 100 nM, CD34+ cells cultured 8 hours
Description: In order to confirm the induction of CD34+ hair follicle stem cell proliferation through β-catenin pathway, mRNA expression levels of β-catenin target genes AXIN, CD44 and TCF7 were confirmed by the following method. Specifically, each test substance was treated and CD34+ cells were cultured for 8 hours. Then, the cultured cells were collected, RNA was isolated using GeneJET RNA purification kit (Thermo Fisher, K0731), and cDNA was synthesized with the Maxima first strand cDNA synthesis kit (Thermo Fisher, K1642). qRT-PCR was performed using each of the gene-specific primers (TCF7: 5′-[…]-3′ (SEQ ID NO: 36) and 5′-[…]-3′ (SEQ ID NO: 37), AXIN2: 5′-CTCCTTGGAGGCAAGAGC-3′ (SEQ ID NO: 38) and 5′-GGCCACGCAGCACCGCTG-3′ (SEQ ID NO: 39), CD44: 5′-[…]-3′ (SEQ ID NO: 40) and 5′-GGAGTCTTCGCTTGGGGTA-3′ (SEQ ID NO: 41)), Maxima SYBR green/ROX qPCR master mix (Thermo Fisher, K0222) and 7500 Real-time PCR system (Applied Biosystems, 2720; condition: 40 cycles, 2 step (95° C. for 15 sec, and 54° C. for 60 sec). The expression level of each gene was calculated by the ΔΔCT method.

[6] = system: C3H/HeJ mice having alopecia universalis; test: Hair growth in C3H/HeJ mice with skin graft-induced alopecia areata; assay type: in vivo, mouse; conditions: 100 μl of 100 nM topical once daily for 14 weeks
From the text: In order to confirm the effect of the polypeptide of the present invention on the human hair growth cycle, C3H/HeJ mouse (Jackson Laboratory, USA) was used as an animal model reflecting the pathological state of human alopecia areata. The advantage of using the C3H/HeJ mouse is that when full thickness skin graft is applied to an aged mouse having alopecia areata from young age, patchy alopecia develops within 8 to 10 weeks, and after 20 weeks, alopecia extends to the whole body skin and result in a chronic state of alopecia universalis.
In this test, C3H/HeJ female mice having alopecia universalis that was induced 25 weeks after skin transplantation as described above were used. Without any pretreatment such as shaving or depilation, control group (Control-treated mice, 100 μl of 20% glycerol/PBS) and Neo-Pep polypeptide treated group (Peptide-treated mice, 100 μl of 100 nM Neo-Pep polypeptide (SEQ ID NO: 1) in 20% glycerol/PBS) were treated with each test material topically around the alopecia region using brush, once daily, for 14 weeks. Control group and Neo-Pep treated group consisted of 4 mice, respectively.
Photographs were taken every 2 weeks from the beginning of the experiment.

[7] = system: hair follicles in skin tissue of C3H/HeJ mice; test: H&E histology of skin tissue of C3H/HeJ alopecia areata mice; assay type: in vivo, mouse; conditions: 100 nM topical
From the text: Meanwhile, in the images of the skin tissue of the mouse in FIG. 7, the skin tissue at the alopecia area and the area without alopecia around it was collected, fixed in Fekete's acid alcohol formalin and analyzed for H&E staining.
These are main characteristics used for diagnosing alopecia areata. And follicular dystrophy is a phenomenon that occurs frequently in alopecia areata, which means that hair follicles are twisted and deformed or have weak or disrupted hair shaft.

Sequence: AVLKRLEQKGAEADQIIEYLKQQVSLLKEKAILQATLREEK (Homo sapiens Neo-Pep polypeptide; AIMP1-(6-46))
- dorsal hair growth compared with control group [1]: grew much more
- dermis thickness compared with control [2]: much thicker
- number of hair follicles of anagen phase compared with control [2]: more than twice as much
- start of anagen phase compared with control (BrdU, β-catenin, Cytokeratin 15) [3]: starts earlier
- proliferation of CD34+ hair follicle stem cells ([4]; 1 nM, 10 nM, 100 nM and 1000 nM): induced proliferation of CD34+ hair follicle stem cells in a dose-dependent manner
- inducing proliferation of CD34+ hair follicle stem cells (relative cell number) ([4]; each peptide 100 nM, 24 hours): induced proliferation
- mRNA expression level of AXIN, CD44 and TCF7 compared to the control group [5]: 5 fold
- time at which hair began to grow again [6]: 11 weeks
- mice with mild to moderate hair growth ([6]; 4 mice per group): 3 out of 4
- development of inflammation and deformed hair shaft compared to the control group [7]: significantly lower
